Source: US12546785B2, “IL-17F and IL-17A-specific capture agents, compositions, and methods of using and making” (Regeneron Pharmaceuticals, Inc., priority 2017, dated 2026)
“Also recorded” adds a separate entry of the source. Bridge positions count the residues as written; N and C are the ends. Square brackets hold non-standard residues; d marks the D form. Triazole bridges read from a SMILES are 1,4-linked. Peptide text beside a SMILES is read from it. * marks the point of attachment. ξ: configuration not given here. Biotinyl(3aR,4R,6aS) = O=C1N[C@@H]2[C@@H](CS[C@@H]2CCCCC(=O)*)N1; X1 = O=C(CCCCC1SC[C@H]2NC(=O)N[C@@H]12)NCCCOCCOCCOCCCN*; Lys(N3) = [N-]=[N+]=NCCCC[C@H](N)C(=O)O; dThr(3ξ) = CC(O)[C@@H](N)C(=O)O; Thr(3ξ) = CC(O)[C@H](N)C(=O)O; AEEEA = NCCOCCOCCOCC(=O)O; Pra = C#CC[C@H](N)C(=O)O

Legend:
[1] = target: T1, full-length His-tagged IL-17F protein (Homo sapiens, UniProt Q96PD4); assay: Sandwich ELISA: IL-17F captured by ligand immobilized on NeutrAvidin plate; type: binding; conditions: for binding affinity compared, in words: sandwich ELISA
T1 construct: Full-length His-tagged IL-17F protein (ab167911, Abcam) was serially diluted in Wash Buffer; purchased Abcam ab167911
T1 sequence (Q96PD4 31-163): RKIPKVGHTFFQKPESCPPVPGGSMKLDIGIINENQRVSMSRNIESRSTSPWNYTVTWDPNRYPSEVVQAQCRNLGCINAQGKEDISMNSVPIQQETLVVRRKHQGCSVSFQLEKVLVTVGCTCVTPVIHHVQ
Procedure: Sandwich ELISA. A black 96-well NeutrAvidin Coated High Binding Capacity plate (15510, Pierce) was coated with 2 μM macrocyclic peptide ligand in TBS (25 mM Tris-HCl, 150 mM NaCl, pH 7.6) for 2 h at room temperature. Biotinylated monoclonal anti-IL17F (TA319597, Origene) was coated at 4 μg/mL in TBS as a control. The plate was aspirated and then washed with TBS (5×) and Wash Buffer (0.05% (v/v) Tween-20 in PBS, 1×). Full-length His-tagged IL-17F protein (ab167911, Abcam) was serially diluted in Wash Buffer (from 800 to 0 nM) and incubated in the designated microwells for 90 min at room temperature. Microwells were aspirated and subsequently washed with Wash Buffer (10×). To detect the bound IL-17F protein, Alkaline Phosphatase (AP)-conjugated Anti-6X His tag® antibody [HIS-1] (ab49746, Abcam) was prepared at 1:10,000 dilution and added to the microwells for 1 h at room temperature. The plate was aspirated and washed with Wash Buffer (11×). AttoPhos® AP Fluorescent Substrate System (S1000, Promega) was employed to develop the microwells. Using an excitation wavelength of 430 nm, fluorescent emission at 535 nm was recorded by Beckman Coulter DTX880 photometer. Titration curves were fit using a four-parameter regression curve fitting program (Origin 8.5) to determine EC50 values.
(§1) For these assays, a dilution series of full-length His-tagged IL-17F protein was captured using the macrocyclic peptide ligands immobilized on a NeutrAvidin-coated plate.
Sandwich ELISA. These assays were performed using the same protocol that was used to evaluate the IL-17F Epitope1 targeted ligands.
as §1

trypsin = assay: Trypsin protease digestion, analytical HPLC; type: in vitro ADME; conditions: trypsin 1 h at 37° C., analytical HPLC at 215 nm
Procedure: Bi-LF Biotin-PEG3-Cy(RSYNKX1X2) (SEQ ID NO:102)-PEG3-Cy(RRATSX1X2) (SEQ ID NO:83) (X1=azidolysine and X2=propargylglycine) was incubated with trypsin to study its susceptibility to protease digestion. Trypsin can cleave peptides and proteins on the C-terminal side of lysine and arginine L-amino acids. For this assay, test compounds were treated with trypsin protease (1 h at 37° C.) or left untreated as a control. In an Eppendorf tube, 4 μL of trypsin solution (10 μg/mL in 1 mM HCl) and 80 pmol of biligand were added to TBS for a final volume of 20 μL. The solution was incubated for 1 h at 37° C., and then further diluted with 80 μL TBS. 50 μL of each sample was injected into a Dionex Ultimate 3000 series analytical HPLC fitted with a Phenomenex Luna-C18 column, and eluted with a gradient of 10%-62% acetonitrile in 0.1% TFA (v/v) in water over 45 min. The samples were monitored at 215 nm.

IL-17F protein [2] = target: T2, IL-17F protein (Homo sapiens, UniProt Q96PD4); assay: IL-17F binding in a background of human serum, surface-immobilized ligand; conditions: for IL-17F binding efficiency in human serum: up to 10% (v/v) serum
T2 construct: His tag
T2 sequence (Q96PD4 31-163): T1 sequence (Q96PD4 31-163)
Excerpt: Binding to IL-17F in 25% (v/v) serum is also detectable.
Target binding in biologically complex samples was interrogated by contacting surface-immobilized macrocycles with IL-17F protein in a background of human serum.

[3] = target: T3, His-tagged IL-17F Epitope1 (C48S) (Homo sapiens, UniProt Q96PD4); assay: Assay to determine orientation of macrocycle binding to IL-17F Epitope1 (point ELISA with His-tagged epitopes); conditions: epitope 2 μM, unscrambled
T3 construct: made in house; host or cells: chemical peptide synthesis
Procedure: (§2) Assay to determine orientation of macrocycle binding to IL-17F Epitope1. A black 96-well NeutrAvidin Coated High Binding Capacity plate (15510, Pierce) was coated with 2 μM macrocyclic peptide ligand in TBS (pH 7.6) for 2 h at room temperature. Biotinylated monoclonal anti-IL17F (TA319597, Origene) was coated at 4 μg/mL in TBS as a control. The plate was aspirated and then washed with TBS (5×) and Wash Buffer (0.05% (v/v) Tween-20 in PBS, 1×). Chemically synthesized His-tagged IL-17F epitopes were prepared at 2 μM in Wash Buffer and incubated in the designated microwells for 90 min at room temperature. Wash Buffer without epitope was added as a control. Microwells were aspirated and subsequently washed with Wash Buffer (10×). To detect the bound IL-17F epitopes, Alkaline Phosphatase (AP)-conjugated Anti-6X His tag® antibody [HIS-1] (ab49746, Abcam) was prepared at 1:10,000 dilution and added to the microwells for 1 h at room temperature. The plate was aspirated and washed with Wash Buffer (11×). AttoPhos® AP Fluorescent Substrate System (S1000, Promega) was employed to develop the microwells. Using an excitation wavelength of 430 nm, fluorescent emission at 535 nm was recorded by Beckman Coulter DTX880 photometer. Data are shown after subtraction of the no-epitope background.
(§3) For this experiment, the IL-17F Epitope1 was re-synthesized with a His6 assay handle and C48S substitution instead of a click handle. Two additional His-tagged IL-17F epitopes were synthesized to contain strategic scrambling of the sequences either N-terminal or C-terminal to C48S (scrambled residues are shown in italics): • 1) His6-PEG3-[…] (SEQ ID NO:39); • 2) His6-PEG3-[…] (scrambled C-terminal to click handle; SEQ ID NO:40); • 3) His6-PEG3-[…] (scrambled N-terminal to click handle; SEQ ID NO:41).
(§4) In anticipation of forming a biligand with LF2 (SEQ ID NO: 28), it was important to gain insight on whether LF1 (SEQ ID NO:9) preferentially binds to the N- or C-terminus of Epitope1. Therefore, two His-tagged IL-17F epitopes were generated, scrambling the sequence either N-terminal or C-terminal to the location of the azide click handle. His6 assay handle and C48S substitution instead of a click handle. The scrambled amino acids are shown in italics. MALDI-TOF MS (m/z): calculated for C116H163N37O31 (M+H) 2571.23; found 2571.57.

[4] = test system: His-tagged IL-17F Epitope1 (C48S); assay: as above; conditions: for ELISA signal for epitope scrambled C-terminal to click handle / binding to epitope scrambled N-terminal to click handle: epitope 2 μM
Procedure: as §2, §3, §4

IL-17F protein [5] = target: T2, IL-17F protein; assay: Fluorescence polarization titration in solution; type: binding; conditions: for Kd: 5-FITC-tagged macrocycles, in solution; for standard Gibbs free energy change (ΔG°=RTlnKD) of binding to IL-17F: 25° C.
Procedure: The bonding affinities of the macrocycles were tested in solution by titrating the recombinant human IL-17F protein against fluorescein 5-isothiocyanate (5-FITC)-tagged macrocycles by fluorescence polarization. […] The structure of LA3 (SEQ ID NO:44), the lead macrocycle developed against IL-17A Epitope3, is shown below (X=PEG3-biotin). MALDI-TOF MS (m/z): calcd. for C62H98N22O13S (M+H) 1391.74; found 1392.36.

Structure (SMILES)	binding affinity compared, in words ([1]; IL-17F)	susceptibility to trypsin digestion (trypsin)	IL-17F binding efficiency in human serum (IL-17F protein [2])	ELISA signal for His-tagged IL-17F Epitope1 (C48S) [3]	ELISA signal for epitope scrambled C-terminal to click handle [4]	binding to epitope scrambled N-terminal to click handle [4]	Kd (IL-17F protein [5]) [µM]	standard Gibbs free energy change (ΔG°=RTlnKD) of binding to IL-17F (IL-17F protein [5]) [kcal/mol]	also measured
CC(O)[C@H]1NC(=O)[C@@H](C)NC(=O)[C@@H](CCCNC(=N)N)NC(=O)[C@@H](CCCNC(=N)N)NC(=O)[C@@H](NC(=O)COCCOCCOCCNC(=O)[C@@H]2CCCCn3cc(nn3)C[C@H](NC(=O)COCCOCCOCCNC(=O)CCCC[C@H]3SC[C@H]4NC(=O)N[C@H]43)C(=O)N[C@H](CCCNC(=N)N)C(=O)N[C@H](CO)C(=O)N[C@H](Cc3ccc(O)cc3)C(=O)N[C@H](CC(N)=O)C(=O)N[C@H](CCCCN)C(=O)N2)Cc2cn(nn2)CCCC[C@@H](C(N)=O)NC(=O)[C@@H](CO)NC1=O (stereo partly drawn) [Bi-LG, Biotin-PEG3-Cy(rsynkX1X2)-PEG3-Cy(rratsX1X2)] ({Biotinyl(3aR,4R,6aS)-AEEEA}-[Pra][dR][dS][dY][dN][dK][Lys(N3)][AEEEA][Pra][dR][dR][dA][dThr(3ξ)][dS][Lys(N3)]-NH2; triazole 1-7, 9-15)	slightly weaker binding	resistance to trypsin digestion; also recorded: resistant to trypsin digestion	–	–	–	–	–	–	–
CC(O)[C@@H]1NC(=O)[C@H](C)NC(=O)[C@@H](CCCNC(=N)N)NC(=O)[C@@H](CCCNC(=N)N)NC(=O)[C@@H](NC(=O)COCCOCCOCCNC(=O)[C@@H]2CCCCn3cc(nn3)C[C@H](NC(=O)COCCOCCOCCNC(=O)CCCC[C@H]3SC[C@H]4NC(=O)N[C@H]43)C(=O)N[C@H](CCCNC(=N)N)C(=O)N[C@@H](CO)C(=O)N[C@@H](Cc3ccc(O)cc3)C(=O)N[C@@H](CC(N)=O)C(=O)N[C@H](CCCCN)C(=O)N2)Cc2cn(nn2)CCCC[C@@H](C(N)=O)NC(=O)[C@H](CO)NC1=O (stereo partly drawn) [Bi-LS, Biotin-PEG3-Cy(rSYNkX1X2)-PEG3-Cy(rrATSX1X2)] ({Biotinyl(3aR,4R,6aS)-AEEEA}-[Pra][dR]SYN[dK][Lys(N3)][AEEEA][Pra][dR][dR]A[Thr(3ξ)]S[Lys(N3)]-NH2; triazole 1-7, 9-15)	slightly weaker binding	resistant to trypsin digestion	–	–	–	–	–	–	–
CC(O)[C@@H]1NC(=O)[C@H](C)NC(=O)[C@H](CCCNC(=N)N)NC(=O)[C@H](CCCNC(=N)N)NC(=O)[C@@H](NC(=O)COCCOCCOCCNC(=O)[C@@H]2CCCCn3cc(nn3)C[C@H](NC(=O)COCCOCCOCCNC(=O)CCCC[C@H]3SC[C@H]4NC(=O)N[C@H]43)C(=O)N[C@@H](CCCNC(=N)N)C(=O)N[C@@H](CO)C(=O)N[C@@H](Cc3ccc(O)cc3)C(=O)N[C@@H](CC(N)=O)C(=O)N[C@@H](CCCCN)C(=O)N2)Cc2cn(nn2)CCCC[C@@H](C(N)=O)NC(=O)[C@H](CO)NC1=O (stereo partly drawn) [Biotin-PEG3-Cy(RSYNKX1X2)-PEG3-Cy(RRATSX1X2)] ({Biotinyl(3aR,4R,6aS)-AEEEA}-[Pra]RSYNK[Lys(N3)][AEEEA][Pra]RRA[Thr(3ξ)]S[Lys(N3)]-NH2; triazole 1-7, 9-15)	–	trypsin digestion indeed occurred	no reduction in binding efficiency	–	–	–	–	–	bivalent interaction stronger than the other biligands ([1]; IL-17F): at least 16 times; improvement in affinity relative to the individual PCC macrocyclic ligands ([1]; IL-17F): > 100 fold; binding to IL-17F in human serum (IL-17F protein [2]; 25% (v/v) serum): detectable
C[C@@H]1NC(=O)[C@H](CCCNC(=N)N)NC(=O)[C@H](CCCNC(=N)N)NC(=O)[C@@H](N)Cc2cn(nn2)CCCC[C@@H](C(=O)NCCCOCCOCCOCCCNC(=O)CCCCC2SC[C@H]3NC(=O)N[C@@H]23)NC(=O)[C@H](CO)NC(=O)[C@H](CCC(N)=O)NC1=O (stereo partly shown) [Cy(RRAQSX1X2), Cy(RRAQSX1X2)-PEG3-biotin] (H-[Pra]RRAQS[Lys(N3)]-X1; triazole 1-7)	–	–	–	positive ELISA signals	positive ELISA signals	Binding was destroyed	–	–	–
CC(O)[C@@H]1NC(=O)[C@H](C)NC(=O)[C@H](CCCNC(=N)N)NC(=O)[C@H](CCCNC(=N)N)NC(=O)[C@@H](N)Cc2cn(nn2)CCCC[C@@H](C(=O)NCCCOCCOCCOCCCNC(=O)CCCCC2SC[C@H]3NC(=O)N[C@@H]23)NC(=O)[C@H](CO)NC1=O (stereo partly shown) [Cy(RRATSX1X2), Cy(RRATSX1X2)-PEG3-biotin] (H-[Pra]RRA[Thr(3ξ)]S[Lys(N3)]-X1; triazole 1-7)	–	–	no reduction in IL-17F binding efficiency	positive ELISA signals	positive ELISA signals	Binding was destroyed	0.05 ± 0.015	-9.9	preferred binding region within IL-17F Epitope1 ([4]; scrambled N- or C-terminus peptides): preferentially bind to the N-terminal portion of Epitope1
C=C1N[C@@H](CCCCN)C(=O)N[C@H](C(N)=O)CCCCn2cc(nn2)C[C@H](NC(=O)COCCOCCOCCNC(=O)CCCC[C@@H]2SC[C@@H]3NC(=O)N[C@@H]32)C(=O)N[C@@H](CCCNC(=N)N)C(=O)N[C@@H](CO)C(=O)N[C@@H](Cc2ccc(O)cc2)C(=O)N[C@H]1CC(N)=O [Cy(RSYNKX1X2), Biotin-PEG3-Cy(RSYNKXIX2)]	exceeds the binding affinity of the similarly assayed biotinylated monoclonal anti-IL17F	–	reduced intensity	–	–	–	0.028 ± 0.009	-10.3	Kd ([1]; against His-tagged IL-17F): 0.015 µM; EC50 ([1]; surface-immobilized ligand, dilution series of His-tagged IL-17F): 0.015 ± 0.005 µM
